Assay results from patent publication USRE33375E, “Treatments employing drug-containing matrices for introduction into cellular lesion areas” (Matrix Pharmaceuticals, Inc., priority 1988, dated 1990).

Tests used:
[1] = system: experimental murine fibrosarcoma (RIF-1 cells); experiment: Regrowth delay of the treated transplantable murine fibrosarcoma; assay type: in vivo, murine; female C3H mice; details: time to 4 times initial treatment volume (150 mm^3), Mean ± S.E.
Description: times their initial treatment volume (150 mm^3). Increasing values
indicate enhanced therapeutic effect.
When the tumors reached a volume of 150 mm^3, the mice were assigned randomly to the following groups (4-6 mice per group): (1) untreated controls; (2) 5-FU (100 mg/kg), i.p., 0.1 ml/mouse; (3) 5-FU (100 mg/kg), i.t., 0.1 ml/tumor; (4) 5-FU-BC (100 mg 5-FU/kg dispersed in BC (18 mg/ml)), i.t., 0.1 ml/tumor; 5-FU-EPI-BC (100 mg 5-FU/kg) 5 mg EPI/kg dispersed in BC (18 mg/ml), i.t., 0.1 ml/tumor.
In the next study doxorubicin-HCl (ADM) (Adriamycin) was studied using the above-described protocol. The adriamycin in distilled water (4.45 mg/ml) was mixed with 36 mg/ml bovine collagen (BC) 1:1 to yield a composition ratio of 2.25 mg adriamycin:18 mg BC/ml.
^2 Tumor Regrowth Delay (RD). Time (days) required for tumors to grow
to 3 × its original treatment volume (~150 mm^3).
Increasing RD indicate increased tumor cell killing.

[2] = system: uninjected contralateral fibrosarcoma (RIF-1 cells); experiment: Regrowth delay of the uninjected contralateral fibrosarcoma; assay type: in vivo, murine; female C3H mice; details: time to 4 times initial volume, Mean ± S.E.
Description: A transplantable experimental murine fibrosarcoma (2×10^5 RIF-1 cells) was grown intradermally in the flank of 5 month old female C3H mice (Bantin and Kingman, Fremont, Calif.). Cis-diamine dichloroplatinum (II) (cis-Pt) (Sigma Chemical Co., St. Louis, Mo.) was dissolved in sterile saline at concentrations of 0.8, 1.6 and 3.2 mg/ml and mixed 1:1 with bovine collagen (BC) (36 mg/ml) in PBS 20 mM phosphate, 140 mM NaCl (Collagen Corp., Palo Alto, Calif.). Doses of 2, 4 and 8 mg/kg host of cis-Pt were delivered in 0.1 ml of the collagenous drug mixture to the center of the tumor growing in the flank (intratumorally, i.t.), and the tumor measured. The growth of a second uninjected tumor on the opposing flank of the same mouse was also measured. In addition, cis-Pt dissolved in PBS without collagen was administered intraperitoneally (i.p.) to other tumor-bearing mice (4 tumors/group) to monitor the effects on tumor growth of the drug without collagen. Furthermore, the effect of bovine collagen on tumor growth was also studied by injection of 0.1 ml of collagen, (18 mg/ml) into the experimental fibrosarcomas, as previously described. The growth of the tumors was monitored three times per week by caliper measurements of three perpendicular diameters of the tumor and calculating tumor volume from the formula
*Regrowth Delay determined as the time (days) for tumors to grow to four
times their initial treatment volume (150 mm^3).
In the next study 5-fluorouracil (5-FU) (Sigma Chem. Co., St. Louis, Mo.) with and without epinephrine (Sigma) suspended in saline by sonication (60 mg/ml) and mixed 1:1 with bovine collagen (BC) (Collagen Corp., Palo Alto, Calif.) (36 mg/ml) or normal saline. The subjects were 25 gm 12 week-old female C3H/He mice (Bantin and Kingman, Fremont, Calif.) bearing the transplatable experimental murine fibrosarcoma propagated intradermally as previously described.
The adriamycin in distilled water (4.45 mg/ml) was mixed with 36 mg/ml bovine collagen (BC) 1:1 to yield a composition ratio of 2.25 mg adriamycin:18 mg BC/ml.
^3 Contralateral Tumor RD (CRD). Time (days) required for untreated
contralateral tumors to grow to 3× its original treatment volume
(~150 mm^3). Decreasing RD indicate enhanced regionalization of
drug injected when compared to RD.
In the next study vincristine (VCR) was dissolved in saline (0.6 mg/ml) by sonication and mixed 1:1 with bovine collagen (36 mg/ml). Otherwise, the procedure was the same.
In the next study a combination of bleomycin sulfate (Sigma Chemical Co., St. Louis, Mo.) (15 mg/kg) and epinephrine (5 mg/kg) employed in a bovine collagen composition were evaluated for antitumor effect in the transplantable experimental murine fibrosarcoma model previously described. […]

RIF-1 tumor = RIF-1 tumor regrowth delay, cis-DDP-matrix implant in combination with hyperthermia; assay type: in vivo, female C3H mice; details: cis-DDP 6 mg/Kg, i.p.
Description: In the next study cis-DDP-matrix (DDP=cis-Pt) implant in combination with hyperthermia was evaluated.
2. Hyperthermia (43° C., 30 min) alone
3. Hyperthermia+collagen-matrix (CM)+epinephrine (epi) (2 mg/Kg)
4. cis-DDP (6 mg/Kg) i.p.
6. cis-DDP (i.p.) 30 min before hyperthermia
7. cis-DDP-CM-epi (i.t.) 30 min before hyperthermia.
The tumor bearing mice were heated in a precision water bath with 30 gauge thermistor thermometry (±0.2° C.).

N.N.[Cl][Pt][Cl] [cis-Pt, Cis-diamine dichloroplatinum (II)]
Regrowth Delay ([1]; i.p., 2 mg/kg cis-Pt): 7.2 ± 0.1 days | Regrowth Delay ([1]; i.p., 4 mg/kg cis-Pt): 9.1 ± 0.7 days | Regrowth Delay ([1]; i.p., 8 mg/kg cis-Pt): 9.9 ± 1.0 days | Regrowth Delay ([1]; i.t., 2 mg/kg cis-Pt, injected tumor): 9.5 ± 0.5 days | Regrowth Delay ([1]; i.t., 4 mg/kg cis-Pt, injected tumor): 10.3 ± 0.7 days | Regrowth Delay ([1]; i.t., 8 mg/kg cis-Pt, injected tumor): 11.5 ± 0.04 days | Regrowth Delay, uninjected contra ([2]; opposing tumor injected i.t. with 2 mg/kg cis-Pt): 9.3 ± 1.2 days | Regrowth Delay, uninjected contra ([2]; opposing tumor injected i.t. with 4 mg/kg cis-Pt): 8.9 ± 0.7 days | Regrowth Delay, uninjected contra ([2]; opposing tumor injected i.t. with 8 mg/kg cis-Pt): 9.9 ± 0.9 days | Tumor Regrowth Delay (2×) (RIF-1 tumor; 30 min before hyperthermia (43° C., 30 min)): 8.9 ± 0.8 days | Tumor Regrowth Delay (2×) (RIF-1 tumor; no hyperthermia): 6.5 ± 1.5 days
